Source: patent US20110159019A1, “2,4-DIAMINOPYRIMIDINE COMPOUND” (priority 2008, published 2011)

Target: T1, Cytochrome P450 (CYP3A4) (Homo sapiens, UniProt P08684)
T1 construct: human liver microsome (0.1 mg protein/mL); from tissue; host or cells: human liver microsomes
Assay: Measurement of cytochrome P450 (CYP3A4) enzyme inhibition activity in human liver microsome (inhibition tests I and II, midazolam substrate)
Type: in vitro ADME
Conditions: for I (%) Remaining Rate I: inhibition test I: 5 μM test compound, 2 μM midazolam, human liver microsome, 37° C. 20 minutes, no preincubation; for II (%) Remaining Rate II: inhibition test II: 5 μM test compound preincubated 30 minutes with human liver microsome and NADPH, then 2 μM midazolam 20 minutes, relative to test I
Experimental: Test Method 3: Measurement of Cytochrome P450 (CYP3A4) Enzyme Inhibition Activity i) Inhibition Test I (Calculation of Remaining Rate I)
Using a 96-well plate, 2 μM of a substrate (midazolam), 5 μM of a test compound, and human liver microsome (0.1 mg protein/mL) were incubated at 37° C. for 20 minutes in a total amount of 150 μL of a 100 mM phosphate buffer (pH 7.4) containing 0.1 mM EDTA and 1 mM NADPH. Then, the reaction was stopped by adding 130 μl of an aqueous solution containing 80% acetonitrile. Thereafter, the samples were analyzed by LC/MS/MS, and the remaining rates I were calculated using the following equation 1.
Remaining Rate I(%)=Ai,I/Ao,I×100 (Equation 1)
Ai, I=Amount of produced metabolite after reaction in the presence of the test compound in the inhibition test I Ao, I=Amount of produced metabolite after reaction in the absence of the test compound in the inhibition test I ii) Inhibition Test II (Calculation of Remaining Rate II)
Using a 96-well plate, 5 μM of a test compound and human liver microsome (0.1 mg protein/mL) were incubated at 37° C. for 30 minutes in a total amount of 145 μL of a 100 mM phosphate buffer (pH=7.4) containing 0.1 mM EDTA and 1 mM NADPH. Then, 2 μM of midazolam as the substrate was added thereto at a total amount of 150 μL of and incubated at 37° C. for 20 minutes. After the incubation, the reaction was stopped by adding 130 μL of an aqueous solution containing 80% acetonitrile. Thereafter, the samples were analyzed by LC/MS/MS, and the remaining rate II was calculated using the following equation 2.
Remaining Rate II(%)=Ai,II/Ao,II/(Ai,I/Ao,I)×100 (Equation 2)
Ai, II=Amount of produced metabolite after reaction in the presence of the test compound in the inhibition test II […]=Amount of produced metabolite after reaction in the absence of the test compound in the inhibition test II […]
Ex represents No. of the Example Compounds as described below.

T1 sequence (P08684 whole entry): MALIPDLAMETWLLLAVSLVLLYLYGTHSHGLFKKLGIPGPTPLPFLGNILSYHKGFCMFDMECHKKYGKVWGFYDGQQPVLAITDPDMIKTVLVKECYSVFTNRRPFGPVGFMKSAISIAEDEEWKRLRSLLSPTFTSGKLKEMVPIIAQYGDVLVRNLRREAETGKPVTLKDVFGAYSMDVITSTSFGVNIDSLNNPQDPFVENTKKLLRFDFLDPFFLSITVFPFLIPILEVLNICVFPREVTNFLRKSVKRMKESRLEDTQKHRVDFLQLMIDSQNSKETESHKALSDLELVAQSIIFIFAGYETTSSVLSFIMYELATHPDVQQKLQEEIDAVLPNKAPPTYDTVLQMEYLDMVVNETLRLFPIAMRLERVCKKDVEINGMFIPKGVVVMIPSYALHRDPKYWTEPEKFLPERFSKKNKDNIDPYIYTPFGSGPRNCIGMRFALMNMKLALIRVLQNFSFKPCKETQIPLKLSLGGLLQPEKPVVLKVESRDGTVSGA

Structure (SMILES)	I (%) Remaining Rate I	II (%) Remaining Rate II
N#Cc1cnc(NCc2ccccc2OC(F)(F)F)nc1NC[C@]12CC3C[C@H](C1)[C@@H](NCC1CCNCC1)[C@@H](C3)C2 (relative stereo) [Example 329]	92%	95%
COc1ccccc1CNc1ncc(C#N)c(NC[C@]23CC4C[C@H](C2)[C@@H](NCC[C@@H](O)CO)[C@@H](C4)C3)n1 (relative stereo) [Example 352]	94%	81%
N#Cc1cnc(NCc2cnccc2Cl)nc1NC[C@]12CC3C[C@H](C1)[C@@H](NC1CCC(O)CC1)[C@@H](C3)C2 (stereo partly shown) [Example 251]	75%	85%
N#Cc1cnc(NCc2ccccc2Cl)nc1NC[C@]12CC3C[C@H](C1)[C@@H](NCC1CCN(CCO)CC1)[C@@H](C3)C2 (relative stereo) [Example 216]	92%	90%
COc1ccccc1CNc1ncc(C#N)c(NC[C@]23CC4C[C@H](C2)[C@@H](NC2CCC(C)(O)CC2)[C@@H](C4)C3)n1 (single isomer, unassigned) [Example 119]	77%	80%
COc1ncccc1CNc1ncc(C#N)c(NC[C@]23CC4C[C@H](C2)[C@@H](NC2CCC(O)CC2)[C@@H](C4)C3)n1 (relative stereo) [Example 252]	85%	80%
CSc1ncccc1CNc1ncc(C#N)c(NC[C@]23CC4C[C@H](C2)[C@@H](NC2CCC(O)CC2)[C@@H](C4)C3)n1 (relative stereo) [Example 258]	88%	90%
CSc1ccccc1CNc1ncc(C#N)c(NC[C@]23CC4C[C@H](C2)[C@@H](NC[C@H]2CC[C@H](O)CC2)[C@@H](C4)C3)n1 [Example 263]	91%	87%
CSc1ccccc1CNc1ncc(C#N)c(NC[C@]23CC4C[C@H](C2)[C@@H](NC[C@H]2CC[C@H](CO)CC2)[C@@H](C4)C3)n1 (relative stereo) [Example 339]	78%	94%
COc1ncccc1CNc1ncc(C#N)c(NC[C@]23CC4C[C@H](C2)[C@@H](NC[C@H]2CC[C@H](CO)CC2)[C@@H](C4)C3)n1 (relative stereo) [Example 343]	78%	91%
C[C@]1(O)CC[C@H](CN[C@@H]2[C@@H]3CC4C[C@H]2C[C@@](CNc2nc(NCc5ccccc5Cl)ncc2C#N)(C4)C3)CC1 (relative stereo) [Example 370]	81%	85%
COc1ncccc1CNc1ncc(C#N)c(NC[C@]23CC4C[C@H](C2)[C@@H](NC[C@H]2CC[C@H](O)CC2)[C@@H](C4)C3)n1 (relative stereo) [Example 345]	94%	81%
CSc1ccccc1CNc1ncc(C#N)c(NC[C@]23CC4C[C@H](C2)C(NC[C@H]2CC[C@H](O)CC2)[C@@H](C4)C3)n1 (relative stereo) [Example 228]	79%	91%
COc1ncccc1CNc1ncc(C#N)c(NC[C@]23CC4C[C@H](C2)C(N[C@H]2CC[C@H](CO)CC2)[C@@H](C4)C3)n1 (relative stereo) [Example 232]	88%	94%
CSc1ccccc1CNc1ncc(C#N)c(NC[C@]23CC4C[C@H](C2)[C@@H](NC2CCNCC2)[C@@H](C4)C3)n1 (relative stereo) [Example 290]	85%	88%
CSc1ccccc1CNc1ncc(C#N)c(NC[C@]23CC4C[C@H](C2)C(NC[C@H]2CC[C@H](CO)CC2)[C@@H](C4)C3)n1 (stereo partly shown) [Example 229]	80%	95%

More lines, now with the values ahead:

I (%) Remaining Rate I	II (%) Remaining Rate II	Structure (SMILES)
77%	94%	COCCN1CCC(N[C@@H]2[C@@H]3CC4C[C@H]2C[C@@](CNc2nc(NCc5ccccc5Cl)ncc2C#N)(C4)C3)CC1 (relative stereo) [Example 210]
85%	84%	CNC1CCC(N[C@@H]2[C@@H]3CC4C[C@H]2C[C@@](CNc2nc(NCc5ccccc5Cl)ncc2C#N)(C4)C3)CC1 (relative stereo) [Example 316]
81%	91%	N#Cc1cnc(NCc2ccccc2Cl)nc1NC[C@]12CC3C[C@H](C1)[C@@H](N[C@H]1CC[C@@H](NC4CCOCC4)CC1)[C@@H](C3)C2 (relative stereo) [Example 282]
85%	84%	CC1(N)CCC(N[C@@H]2[C@@H]3CC4C[C@H]2C[C@@](CNc2nc(NCc5ccccc5Cl)ncc2C#N)(C4)C3)CC1 (relative stereo) [Example 314]
84%	81%	N#Cc1cnc(NCc2ccccc2Cl)nc1NC[C@]12CC3C[C@H](C1)[C@@H](NC1CCC(O)CC1)[C@@H](C3)C2 (stereo partly shown) [Example 95]
89%	83%	CC(=O)N1CCC(N[C@H]2CC[C@@H](N[C@@H]3[C@@H]4CC5C[C@H]3C[C@@](CNc3nc(NCc6ccccc6Cl)ncc3C#N)(C5)C4)CC2)CC1 (relative stereo) [Example 281, rel-4-({[(1R,3S,4R,5R)-4-({cis-4-[(1-acetylpiperidin-4-yl)amino]cyclohexyl}amino)adamantan-1-yl]methyl}amino)-2-[(2-chlorobenzyl)amino]pyrimidine-5-carbonitrile]
85%	86%	CNC1CCC(N[C@@H]2[C@@H]3CC4C[C@H]2C[C@@](CNc2nc(NCc5ccccc5Cl)ncc2C#N)(C4)C3)CC1 (stereo partly shown) [Example 315]
83%	99%	N#Cc1cnc(NCc2ccccc2Cl)nc1NC[C@]12CC3C[C@H](C1)[C@@H](NC1CCN(C4CCOCC4)CC1)[C@@H](C3)C2 (relative stereo) [Example 266]
82%	83%	CCN1CCC(N[C@@H]2[C@@H]3CC4C[C@H]2C[C@@](CNc2nc(NCc5ccccc5Cl)ncc2C#N)(C4)C3)CC1 [Example 249]
87%	81%	COc1ccccc1CNc1ncc(C#N)c(NC[C@]23CC4C[C@H](C2)[C@@H](N[C@H]2CC[C@H](O)CC2)[C@@H](C4)C3)n1 (relative stereo) [Example 62]
81%	85%	N#Cc1cnc(NCc2ccccc2Cl)nc1NC[C@]12CC3C[C@H](C1)[C@@H](NC1CCN(CCF)CC1)[C@@H](C3)C2 (relative stereo) [Example 212]
75%	81%	N#Cc1cnc(NCc2ccccc2Cl)nc1NC[C@]12CC3C[C@H](C1)[C@@H](NC1CCC(N4CCC[C@@H]4CO)CC1)[C@@H](C3)C2 (relative stereo) [Example 238]
82%	90%	CSc1ccccc1CNc1ncc(C#N)c(NC[C@]23CC4C[C@H](C2)[C@@H](NC2CCC(O)CC2)[C@@H](C4)C3)n1 (relative stereo) [Example 68, rel-4-[({(1S,3R,4S,5S)-4-[(4-hydroxycyclohexyl)amino]adamantan-1-yl}methyl)amino]-2-{[2-(methylsulfanyl)benzyl]amino}pyrimidine-5-carbonitrile]
88%	82%	CN1CCC(N[C@@H]2[C@@H]3CC4C[C@H]2C[C@@](CNc2nc(NCc5ccccc5Cl)ncc2C#N)(C4)C3)CC1 (relative stereo) [Example 248]
79%	92%	N#Cc1cnc(NCc2ccccc2Cl)nc1NC[C@]12CC3C[C@H](C1)[C@@H](NC1CCN(CCO)CC1)[C@@H](C3)C2 [Example 209]
82%	85%	N#Cc1cnc(NCc2ccccc2Cl)nc1NC[C@]12CC3C[C@H](C1)[C@@H](N[C@H]1CC[C@@H](NCCO)CC1)[C@@H](C3)C2 (relative stereo) [Example 220, rel-2-[(2-chlorobenzyl)amino]-4-({[(1R,3S,4R,5R)-4-({cis-4-[(2-hydroxyethyl)amino]cyclohexyl}amino)adamantan-1-yl]methyl}amino)pyrimidine-5-carbonitrile]
